Assay results reported in ChEMBL document CHEMBL3621070, “Design and synthesis of 2-phenylnaphthalenoids and 2-phenylbenzofuranoids as DNA topoisomerase inhibitors and antitumor agents” (Eur J Med Chem, 2015).
Calls of active or inactive are those of the source. The rule behind the calls is not given here.

Tests used:
MDA-MB-231 [1] = experiment: Antiproliferative activity against human MDA-MB-231 cells assessed as growth inhibition at 10 uM after 72 hrs by SRB assay; assay type: functional; settings: MDA-MB-231, 72 h, read-out: GI
MDA-MB-435 [2] = experiment: Antiproliferative activity against human MDA-MB-435 cells assessed as growth inhibition at 10 uM after 72 hrs by SRB assay; assay type: functional; settings: MDA-MB-435, 72 h, read-out: GI
MDA-MB-231 [3] = experiment: Antiproliferative activity against human MDA-MB-231 cells after 72 hrs by SRB assay; assay type: functional, cell-based; settings: MDA-MB-231, 72 h
MDA-MB-435 [4] = experiment: Antiproliferative activity against human MDA-MB-435 cells after 72 hrs by SRB assay; assay type: functional, cell-based; settings: MDA-MB-435, 72 h
HepG2 = experiment: Antiproliferative activity against human HepG2 cells after 72 hrs by SRB assay; assay type: functional, cell-based; settings: HepG2, 72 h
PC-3 = experiment: Antiproliferative activity against human PC3 cells after 72 hrs by SRB assay; assay type: functional, cell-based; settings: PC-3, 72 h
[5] = target: DNA topoisomerase 2-alpha (Homo sapiens) (UniProt P11388); experiment: Inhibition of human recombinant topoisomerase 2alpha assessed as relaxation of pBR322 DNA at 100 uM after 30 mins by agarose gel electrophoresis
MDA-MB-231 [6] = experiment: Inhibition of topoisomerase in human MDA-MB-231 cells assessed as ATM phosphorylation at Ser1981 residue at 10 uM after 24 hrs by western blot analysis; assay type: cell-based
[7] = target: DNA topoisomerase 2-alpha (Homo sapiens) (UniProt P11388); settings: 100 uM
Description: Inhibition of human recombinant topoisomerase 2 alpha assessed as topoisomerase poison activity by measuring generation of linear DNA using circular supercoiled DNA at 100 uM by agarose gel electrophoresis

Bos taurus = species: Bos taurus; experiment: Inhibition of calf thymus topoisomerase 1 assessed as relaxation of pBR322 DNA at 100 uM after 30 mins by agarose gel electrophoresis
Nucleic Acid [8] = experiment: Induction of DNA intercalation in Escherichia coli pBR322 plasmid DNA assessed as supercoiled DNA formation at 10 ug/ml after 1 hr by agarose gel electrophoresis; assay type: nucleic-acid assay
Nucleic Acid [9] = experiment: Induction of DNA intercalation in Escherichia coli pBR322 plasmid DNA assessed as supercoiled DNA formation at 100 uM after 1 hr by agarose gel electrophoresis; assay type: nucleic-acid assay

Sequence of DNA topoisomerase 2-alpha (Homo sapiens) (P11388 whole entry): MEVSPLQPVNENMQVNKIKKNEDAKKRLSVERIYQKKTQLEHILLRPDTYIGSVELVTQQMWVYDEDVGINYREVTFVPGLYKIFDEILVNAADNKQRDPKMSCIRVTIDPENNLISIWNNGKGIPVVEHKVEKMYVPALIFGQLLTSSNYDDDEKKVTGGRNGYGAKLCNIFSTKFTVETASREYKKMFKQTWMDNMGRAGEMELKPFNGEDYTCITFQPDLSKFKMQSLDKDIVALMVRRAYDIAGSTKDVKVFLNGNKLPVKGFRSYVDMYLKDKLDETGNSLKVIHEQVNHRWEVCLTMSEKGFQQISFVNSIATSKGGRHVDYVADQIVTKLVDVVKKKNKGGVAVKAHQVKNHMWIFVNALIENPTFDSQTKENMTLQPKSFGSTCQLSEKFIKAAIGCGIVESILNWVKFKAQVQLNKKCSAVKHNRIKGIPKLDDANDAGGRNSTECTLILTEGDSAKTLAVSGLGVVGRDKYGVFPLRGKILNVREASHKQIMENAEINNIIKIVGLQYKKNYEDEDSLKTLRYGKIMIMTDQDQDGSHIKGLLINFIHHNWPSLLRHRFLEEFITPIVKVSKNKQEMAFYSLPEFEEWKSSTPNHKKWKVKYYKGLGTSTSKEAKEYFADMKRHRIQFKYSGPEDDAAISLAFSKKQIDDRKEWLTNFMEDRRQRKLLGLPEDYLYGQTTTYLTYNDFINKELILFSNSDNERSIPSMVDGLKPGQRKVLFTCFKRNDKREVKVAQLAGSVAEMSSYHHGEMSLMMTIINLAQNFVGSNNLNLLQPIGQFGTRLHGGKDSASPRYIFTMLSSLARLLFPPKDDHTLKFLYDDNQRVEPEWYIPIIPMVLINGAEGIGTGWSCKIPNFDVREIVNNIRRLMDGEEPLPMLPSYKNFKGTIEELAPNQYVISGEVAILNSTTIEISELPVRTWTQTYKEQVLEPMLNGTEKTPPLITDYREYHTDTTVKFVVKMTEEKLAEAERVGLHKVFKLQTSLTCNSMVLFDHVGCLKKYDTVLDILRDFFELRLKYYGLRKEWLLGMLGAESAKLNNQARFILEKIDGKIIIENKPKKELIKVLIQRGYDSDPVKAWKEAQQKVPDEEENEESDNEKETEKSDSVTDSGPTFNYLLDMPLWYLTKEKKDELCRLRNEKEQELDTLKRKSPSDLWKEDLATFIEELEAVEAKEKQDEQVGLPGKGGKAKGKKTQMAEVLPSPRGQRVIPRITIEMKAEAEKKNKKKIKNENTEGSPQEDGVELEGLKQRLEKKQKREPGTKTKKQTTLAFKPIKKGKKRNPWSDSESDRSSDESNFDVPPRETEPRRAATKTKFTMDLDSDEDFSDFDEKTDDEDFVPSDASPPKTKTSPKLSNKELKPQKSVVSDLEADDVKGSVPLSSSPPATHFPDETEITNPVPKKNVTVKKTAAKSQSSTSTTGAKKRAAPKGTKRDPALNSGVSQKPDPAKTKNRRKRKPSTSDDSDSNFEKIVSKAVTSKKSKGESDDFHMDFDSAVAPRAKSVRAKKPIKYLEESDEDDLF

COc1cc([C@@H]2c3cc4c(cc3[C@@H](O[C@@H]3O[C@@H]5CO[C@@H](C)O[C@H]5[C@H](O)[C@H]3O)[C@H]3COC(=O)[C@H]23)OCO4)cc(OC)c1O [ETOPOSIDE]
inhibition of growth at 10 µM (MDA-MB-231 [1]): 71% | inhibition of growth at 10 µM (MDA-MB-435 [2]): 96.1% | IC50 (MDA-MB-231 [3]): 3.6 µM | IC50 (MDA-MB-435 [4]): 1.7 µM | IC50 (HepG2): 30 µM | IC50 (PC-3): 1 µM | inhibition [5]: Active | inhibition (MDA-MB-231 [6]): Active | inhibition [7]: Active

OCc1ccc(-c2cc3cc(O)ccc3o2)cc1
inhibition of growth at 10 µM (MDA-MB-231 [1]): 10.6% | inhibition of growth at 10 µM (MDA-MB-435 [2]): 42.6%

Oc1ccc(-c2cc3cc(O)ccc3o2)cc1
inhibition of growth at 10 µM (MDA-MB-231 [1]): 29.5% | inhibition of growth at 10 µM (MDA-MB-435 [2]): 13.8%

CC[C@@]1(O)C(=O)OCc2c1cc1n(c2=O)Cc2cc3cc(O)ccc3nc2-1
inhibition (Bos taurus): Active

Oc1ccc2cc(-c3ccc4c(c3)OCO4)ccc2c1
inhibition of growth at 10 µM (MDA-MB-231 [1]): 66.3% | inhibition of growth at 10 µM (MDA-MB-435 [2]): 86.9% | IC50 (MDA-MB-231 [3]): 8.5 µM | IC50 (MDA-MB-435 [4]): 3.9 µM | IC50 (HepG2): 2.6 µM | IC50 (PC-3): 10.8 µM

CC[N+](C)(CC)CCC[n+]1c(-c2ccccc2)c2cc(N)ccc2c2ccc(N)cc21
Activity (Nucleic Acid [8]): Active

Oc1ccc2oc(-c3ccc4c(c3)OCO4)cc2c1
inhibition of growth at 10 µM (MDA-MB-231 [1]): 3.6% | inhibition of growth at 10 µM (MDA-MB-435 [2]): 11.2%

COc1cccc2c1C(=O)c1c(O)c3c(c(O)c1C2=O)C[C@@](O)(C(=O)CO)C[C@@H]3O[C@H]1C[C@H](N)[C@H](O)[C@H](C)O1
Activity (Nucleic Acid [9]): Active

O=[N+]([O-])c1cccc(-c2cc3cc([N+](=O)[O-])ccc3o2)c1
inhibition of growth at 10 µM (MDA-MB-231 [1]): 17.3% | inhibition of growth at 10 µM (MDA-MB-435 [2]): 4.3%
